# Data reported in paper PMC7281206, “Cysteine Cathepsins Inhibition Affects Their Expression and Human Renal Cancer Cell Phenotype” (Cancers, 2020).
# Assays:
# pancreatic cells = settings: 48 and 72 h; ref [58]; cited from earlier work
# Text: In general, Cts inhibitors cannot be considered very potent cytostatic molecules. H ...
# 769-P cells = test: Cell viability with paclitaxel (MTT), 769-P; type: cell-based, human; settings: PXT alone, 100 nM, 72 h
# Method: (§1) To evaluate the inhibitory properties of the peptides directly on the human renal cancer cells, we firstly assessed the impact of Ac-PLVE-FMK and Ac-VLPE-FMK on the cell viability of 769-P and A498 cells to determine the working concentrations for further experiments. […] Further experiments were performed using a concentration of 20 μM. To understand if the peptides could affect the activity of caspase proteases, we tested their effect on cell viability in combination with the chemotherapeutic paclitaxel (PXT) in both the cell lines. […] Next, we evaluated the effect of the peptides on renal cancer cell proteolytic activity against the fluorogenic probe Ac-PLVQ-AMC. In this case, 769-p and A498 cells were treated for 30 min with Ac-PLVE-FMK or Ac-VLPE-FMK and were then exposed for 10 min to the substrate Ac-PLVQ-AMC prior fluorescence microscopy analysis (Figure 3c,d).
# (§2) The cell number was evaluated by counting viable cells using the MTT (3-(4,5-dimethylthiazol-2-yl)-2,5-diphenyltetrazolium bromide) colorimetric assay. A total of 2 × 10^4 cells/well were seeded on independent 96-well plates for each time point (0, 24, 48, and 72 h), with five replicates and treated with two inhibitors (2.5–250 μM). Then, 10 µL of the MTT reagent was added to each well, and cells were incubated for another 5 h. Next, the absorbance value was measured using a CLARIOstar® Plus plate reader (BMG Labtech, Ortenberg, Germany) at 490 nm. Triplicate wells were assayed, and S.D.s were determined.
# Figure S3. Combined effect of PXT and the inhibitors on 769‐P proliferation: 769‐P cells were treated with 100 nM of PXT alone or in combination with 20 μM of Ac‐PLVE and Ac‐VLPE and cell proliferation was measured after 24, 48, and 72 h via MTT assay. Data represent the mean (± S.D.) of three independent experiments, each performed in triplicate.
# Figure S4. Spheroids size and circularity: (a,b) size and circularity of 769‐P and (c,d) A498 cells upon treatment with Ac‐PLVE‐FMK and Ac‐VLPE‐FMK. Data represent the mean (± S.D.) of three independent experiments, each performed in triplicate. […]
# A498 cells = test: Cell mortality with paclitaxel, A498; type: cell-based, human; settings: PXT alone (data not shown)
# Method: as §1
# as §2, with “Then, 10 µL of the MTT reagent was added to each well, and cells were incubated for another 5 h.” left out
# human recombinant CtsB = test: Fluorescent protease activity assay, recombinant CtsB; type: biochemical; settings: 20 nM CtsB, 50 μM substrate, no inhibitor
# Method: (§3) Ac-PLVE-FMK and Ac-VLPE-FMK inhibitory properties were evaluated against human recombinant CtsL and B. These recombinant enzymes were expressed in E. coli via plasmid transformation and further purification, using nickel-nitrilotriacetic acid (Ni-NTA) sepharose. Gel zymography assay was used to provide a preliminary evaluation of the ability of these recombinant proteins to degrade the gelatin substrate previously embedded in the gel (Supplementary Figure S1). Following Coomassie staining, the Cts were detectable as single bands. As expected, a translucent area was evident, due to the substrate digestion in the proximity of the proteins. Then, the recombinant proteins were tested for their ability to digest the Triticain-α substrate Ac-PLVQ via fluorescent protease activity assay, previously optimized by our group. This probe was conjugated with the fluorogenic chromophore 7-amino-4-methylcoumarin (Ac-PLVQ-AMC). After proteolytic cleavage, it emits a detectable fluorescent signal.
# (§4) Total RNA extract from retinoblastoma […] cells was used to obtain cDNA. A pair of oligonucleotides ([…] and […]) was used for the amplification of DNA fragment containing CtsB, the product of which was ligated into pET15b (Merck Millipore, Billerica, MA, USA) using NdeI and XhoI. DNA fragment containing CtsL was amplified using a pair of oligonucleotides ([…] and […]) and ligated into pET28a (+) (Merck Millipore, Billerica, MA, USA) using NheI and HindIII. […]
# (§5) The activity of recombinant CtsL and B was detected by the hydrolysis of the fluorogenic substrate Ac-Pro-Leu-Val-Gln- 7-amino-4-methylcoumarin (AMC) (Pepmic Suzhou Jiangsu, China). […] The substrate was added to a final concentration of 50 μM, and its hydrolysis was continuously measured for 12 min using a CLARIOstar® Plus plate reader (BMG Labtech Ortenberg Baden-Württemberg, Germany) at excitation and emission wavelengths of 353 and 442 nm, respectively.
# human recombinant CtsL = test: Fluorescent protease activity assay, recombinant CtsL; type: biochemical; settings: 20 nM CtsL, 50 μM substrate, no inhibitor
# Method: as §3, §4, §5
compound,measurement,setting,value
CC(C)C[C@H](NC(=O)[C@H]1O[C@@H]1C(=O)O)C(=O)NCCCCN=C(N)N [E64],Cytotoxic effect,pancreatic cells,"only a moderated cytotoxic effect, which reached a plateau phase after 48 and 72 h"
"CC(=O)O[C@H]1C(=O)[C@@]2(C)[C@H]([C@H](OC(=O)c3ccccc3)[C@]3(O)C[C@H](OC(=O)[C@H](O)[C@@H](NC(=O)c4ccccc4)c4ccccc4)C(C)=C1C3(C)C)[C@]1(OC(C)=O)CO[C@@H]1C[C@@H]2O [PXT, paclitaxel, reference compound]",Ability to kill cancer cells,769-P cells,the ability of the PXT to kill cancer cells was evident after 72 h of treatment at a concentration of 100 nM
same,Cell mortality,A498 cells,did not result in high mortality
"Ac-Pro-Leu-Val-Gln- 7-amino-4-methylcoumarin (AMC) [Ac-PLVQ-AMC, fluorogenic Triticain-α substrate conjugated with 7-amino-4-methylcoumarin, reference compound]",Substrate cleavage,human recombinant CtsB,able to cleave the probe
same,Substrate cleavage,human recombinant CtsL,able to cleave the probe
